This assay has as its target T1, 6HIS-Tev-LRRK2 (1326-2527) (Homo sapiens, UniProt Q5S007).
T1 construct: A LRRK2 cDNA encoding residues 1326-2527 was received from Dundee University; made in house; host or cells: Spodoptera frugiperda Sf9 (baculovirus, pFB-HTb)
T1 sequence (Q5S007 1326-2527): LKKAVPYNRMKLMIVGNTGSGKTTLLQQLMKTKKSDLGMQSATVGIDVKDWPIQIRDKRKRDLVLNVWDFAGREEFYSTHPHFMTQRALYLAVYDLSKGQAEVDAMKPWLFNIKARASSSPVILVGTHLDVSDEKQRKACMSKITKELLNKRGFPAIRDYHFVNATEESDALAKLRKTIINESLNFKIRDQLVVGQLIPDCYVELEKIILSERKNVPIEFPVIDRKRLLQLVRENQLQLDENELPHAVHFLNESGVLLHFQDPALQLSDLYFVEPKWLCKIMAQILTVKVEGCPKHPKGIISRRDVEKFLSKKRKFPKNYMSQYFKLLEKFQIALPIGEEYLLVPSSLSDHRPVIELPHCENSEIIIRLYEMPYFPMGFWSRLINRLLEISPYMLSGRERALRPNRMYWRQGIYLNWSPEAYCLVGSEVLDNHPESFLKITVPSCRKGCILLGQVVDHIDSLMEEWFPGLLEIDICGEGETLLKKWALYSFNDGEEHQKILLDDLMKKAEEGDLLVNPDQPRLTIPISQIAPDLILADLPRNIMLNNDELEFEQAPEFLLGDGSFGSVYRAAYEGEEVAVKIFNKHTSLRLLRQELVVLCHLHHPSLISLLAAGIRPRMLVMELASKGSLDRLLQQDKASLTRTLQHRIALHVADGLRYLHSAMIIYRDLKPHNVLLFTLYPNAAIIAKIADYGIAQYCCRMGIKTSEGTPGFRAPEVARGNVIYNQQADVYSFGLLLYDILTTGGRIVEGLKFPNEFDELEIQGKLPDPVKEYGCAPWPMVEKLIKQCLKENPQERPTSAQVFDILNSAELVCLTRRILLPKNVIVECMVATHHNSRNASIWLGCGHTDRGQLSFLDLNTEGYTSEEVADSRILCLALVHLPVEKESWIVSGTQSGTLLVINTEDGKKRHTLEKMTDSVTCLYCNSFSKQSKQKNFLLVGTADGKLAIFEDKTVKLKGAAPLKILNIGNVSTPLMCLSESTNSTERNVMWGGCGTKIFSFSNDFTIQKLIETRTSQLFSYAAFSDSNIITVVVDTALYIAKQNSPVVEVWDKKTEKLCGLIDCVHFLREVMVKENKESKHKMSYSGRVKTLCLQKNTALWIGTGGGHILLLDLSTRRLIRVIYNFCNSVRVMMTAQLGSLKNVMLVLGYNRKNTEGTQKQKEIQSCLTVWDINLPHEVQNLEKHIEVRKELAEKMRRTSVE
The experiment in a line: LRRK2 Inhibition Mass Spectrometry Assay. The assay is classed as biochemical. As to conditions: 60 nM LRRK2 enzyme; 25 uM LRRKtide; 20 uM ATP; read-out: LRRK2 Inhibition Mass Spectrometry Assay (pIC50) (converted). How it is done:
A LRRK2 cDNA encoding residues 1326-2527 was received from Dundee University (described in M. Jaleel et al., 2007, Biochem J, 405: 407-417). This gene fragment was subcloned into pFB-HTb (Invitrogen) using BamHI and NotI restriction sites. The LRRK2 plasmid was recombined into the baculovirus genome according to the BAC-to-BAC protocol described by Invitrogen. Transfection into Spodoptera frugiperda (Sf9) insect cells was performed using Cellfectin (Invitrogen), according to the manufacturer's protocol to generate P1 and P2 baculovirus stocks.
Sf9 cells were grown in HyClone SFX (Thermo Scientific) growth media at 27° C., 80 rpm in shake flask until of a sufficient volume to inoculate a bioreactor. The cells were grown in a 20 liter working volume Wave bioreactor (GE Healthcare) at 27° C., 50% dissolved oxygen and an agitation rate 22 rocks per minute, 10 degree rock angle, 200 ml/min air with a cell concentration of approximately 6×e6 cells/ml. The cells were infected with P2 Baculovirus at a multiplicity of infection (MOI) of 3. The cultivation was continued for a 48 hour expression phase. The infected cells were removed from the growth media by centrifugation at 2500 g using a Sorvall RC 3C Plus centrifuge at 2500 g for 20 minutes. The cell pellet was immediately frozen and subsequently supplied for purification.
A 260 g pellet was allowed to thaw in a water bath at 27° C. with 800 ml lysis buffer/buffer A (50 mm Tris-HCl pH 8.5, 300 mM NaCl, 1 mm DTT, 10% glycerol, 1 ml/L calbiochem complete protease inhibitor cocktail and benzonase (50 ul/800 ml)) before being dounce homogenised on ice using 20 strokes per 100 ml. The suspension was packed in ice and sonicated at 50% amplitude for 3 min 10 sec on/off using a ¾″ probe. The suspension was then centrifuged at 100,000 g for 90 min, at 4° C.
The lysate (700 ml) was decanted from the insoluble pellet and contacted for 3 h at 4 C with 10 ml His bind Ni NTA resin by end over end mixing. The resin was recovered by centrifugation, 3000 g, 5 min at 4 C, and packed in an XK16 column. The column was then washed with 10 column volumes buffer A, 10 column volumes buffer B (buffer A+1M NaCl) and 10 column volumes buffer C (buffer A+20 mM imidazole). The column was then eluted with 15 column volumes buffer D (buffer A+300 mM imidazole) collecting 2 ml fractions. All washes and elution were conducted at 4 ml/min.
Fractions identified by SDS-PAGE as containing protein of interest were pooled and loaded directly onto a 320 ml SEC Superdex 200 pg column that was pre-equilibrated with buffer E (50 mM Tris-HCl pH 8.5, 300 mM NaCl, 10% glycerol, 1 mM DTT). The column was loaded and eluted with 1.2 column volumes buffer E at 2 ml/min collecting 2 ml fractions. Fractions identified by SDS-PAGE as containing protein of interest were tested for activity.
Production of LRRKtide for LRRK2 Inhibition Mass Spectrometry Assay
The ‘LRRKtide’ peptide H-RLGRDKYKTLRQIRQ-OH was synthesized as follows. The protected peptide was assembled on a solid-phase synthesiser using preloaded Wang resin and utilising standard Fmoc synthesis protocols. The crude peptide was obtained after cleavage from the resin with a mixture of trifluoroacetic acid (TFA), triisopropylsilane and water (95:2.5:2.5) for 3 hours at room temperature and was then purified using a C18 reverse-phase column utilising a 0.1% TFA-buffered water/acetonitrile gradient. The resulting fractions were analysed and fractions which were >95% pure by analytical HPLC and giving the correct molecular weight (mw) (by MALDiTOF mass spectroscopy) were pooled and freeze dried. The final material was analysed by HPLC and MALDiTOF mass spectroscopy.
LRRK2 Inhibition Mass Spectrometry Assay
This assay for Leucine Rich Repeat Kinase 2 (LRRK2) inhibition is based on the direct measurement of the peptide ‘LRRKtide’ (LRRKtide: RLGRDKYKT*LRQIRQ (H-RLGRDKYKTLRQIRQ-OH used for this screen)) and phosphorylated ‘LRRKtide’ using a high throughput RapidFire mass spectrometry assay. […]
On to `CCOc1nc(Nc2cnn([C@H]3CCN(C4COC4)C[C@@H]3F)c2Cl)nc2[nH]ccc12` (single isomer, unassigned) [Example E104], for which the IC50 was 7.94 nM. To `CCOc1nc(Nc2cnn([C@@H]3CCN(C4COC4)C[C@H]3F)c2Cl)nc2[nH]ccc12` (single isomer, unassigned) [Example E105] belongs 7.94 nM. To `CCOc1nc(Nc2cnn(C3CCOCC3C)c2C)nc2[nH]ccc12` (single isomer, unassigned) [Example E113, (cis)-4-ethoxy-N-(5-methyl-1-(3-methyltetrahydro-2H-pyran-4-yl)-1H-pyrazol-4-yl)-7H-pyrrolo[2,3-d]pyrimidin-2-amine] belongs 10 nM; to `CCOc1nc(Nc2cnn(C3CN(C)CCC3(F)F)c2C)nc2[nH]ccc12` (single isomer, unassigned) [Example E121, N-(1-(4,4-difluoro-1-methylpiperidin-3-yl)-5-methyl-1H-pyrazol-4-yl)-4-ethoxy-7H-pyrrolo[2,3-d]pyrimidin-2-amine], 10 nM; to `CCOc1nc(Nc2cnn(C3CN(C4COC4)CCC3(F)F)c2Cl)nc2[nH]ccc12` (single isomer, unassigned) [Example E124, N-(5-chloro-1-(4,4-difluoro-1-(oxetan-3-yl)piperidin-3-yl)-1H-pyrazol-4-yl)-4-ethoxy-7H-pyrrolo[2,3-d]pyrimidin-2-amine], 10 nM. With `CCOc1nc(Nc2cnn(C3CCN(C4COC4)CC3(F)F)c2Cl)nc2[nH]ccc12` (single isomer, unassigned) [Example E134, N-(5-chloro-1-(3,3-difluoro-1-(oxetan-3-yl)piperidin-4-yl)-1H-pyrazol-4-yl)-4-ethoxy-7H-pyrrolo[2,3-d]pyrimidin-2-amine], the IC50 is 7.94 nM. On to `CCOc1nc(Nc2cnn(C3CN(C4COC4)CCO3)c2Cl)nc2[nH]ccc12` (single isomer, unassigned) [Example E141, N-(5-chloro-1-(4-(oxetan-3-yl)morpholin-2-yl)-1H-pyrazol-4-yl)-4-ethoxy-7H-pyrrolo[2,3-d]pyrimidin-2-amine], for which the IC50 is 7.94 nM.

For the compound `CCOc1nc(Nc2cnn(C3CC(N4CCOCC4)C3)c2C)nc2[nH]ccc12` (stereo not drawn) [Example E86, 4-ethoxy-N-(5-methyl-1-(3-morpholinocyclobutyl)-1H-pyrazol-4-yl)-7H-pyrrolo[2,3-d] pyrimidin-2-amine], the IC50 was 10 nM.

Consider `CCOc1nc(Nc2cnn(CCN3CCO[C@H](C(F)F)C3)c2C)nc2[nH]ccc12` [Example E100, (S)—N-(1-(2-(2-(difluoromethyl)morpholino)ethyl)-5-methyl-1H-pyrazol-4-yl)-4-ethoxy-7H-pyrrolo[2,3-d]pyrimidin-2-amine], for which the IC50 is 7.94 nM.

These data come from US10618901B2 (GlaxoSmithKline Intellectual Property Development Limited, priority 2014, dated 2020).
